Measurements taken from US8889671B2, “Compounds and methods for treating bacterial infections” (AstraZeneca AB, priority 2013, dated 2014).

Test system: Staphylococcus aureus
Assay: S. aureus neutropenic mouse thigh infection model, PK/PD
Settings: for AUC value for 1-log reduction / AUC value for stasis: ip, with ABT
[1] = S. aureus MRSA neutropenic dose response
[2] = S. aureus MRSA, neutropenic mouse thigh
[3] = S. aureus MSSA neutropenic dose response
[4] = S. aureus MSSA, neutropenic mouse thigh
[5] = S. aureus USA100, neutropenic mouse thigh
[6] = S. aureus USA100 neutropenic dose response
[7] = S. aureus USA300, neutropenic mouse thigh
[8] = S. aureus USA300 neutropenic dose response

Structure (SMILES): C[C@@H]1CN2c3c(cc4c(N5C(=O)OC[C@@H]5C)noc4c3F)CC3(C(=O)NC(=O)NC3=O)[C@H]2[C@H](C)O1 [Example 5, (2R,4S,4aS)-11-Fluoro-2,4-dimethyl-8-[(4S)-4-methyl-2-oxo-1,3-oxazolidin-3-yl]-1,2,4,4a-tetrahydro-2′H,6H-spiro[1,4-oxazino[4,3-a][1,2]oxazolo[4,5-g]quinoline-5,5′-pyrimidine]-2′,4′,6′(1′H,3′H)-trione]
- AUC/MIC (free), 1-log reduction ± SEM [1]: 96 ± 35
- AUC/MIC (free), EC50 ± SEM [1]: 53 ± 25
- AUC/MIC (free), Stasis ± SEM [1]: 43 ± 5
- AUC value for 1-log reduction [2]: 55 μg·h/mL
- AUC value for stasis [2]: 24 µg·h/mL
- AUC/MIC (free), 1-log reduction ± SEM [3]: 245 ± 81
- AUC/MIC (free), EC50 ± SEM [3]: 71 ± 28
- AUC/MIC (free), Stasis ± SEM [3]: 98 ± 17
- AUC value for 1-log reduction [4]: 69 μg·h/mL
- AUC value for stasis [4]: 28 µg·h/mL
- AUC value for 1-log reduction [5]: 47 μg·h/mL
- AUC value for stasis [5]: 25 µg·h/mL
- AUC/MIC (free), 1-log reduction ± SEM [6]: 83 ± 23
- AUC/MIC (free), EC50 ± SEM [6]: 34 ± 14
- AUC/MIC (free), Stasis ± SEM [6]: 43 ± 5
- AUC value for 1-log reduction [7]: 150 μg·h/mL
- AUC value for stasis [7]: 91 µg·h/mL
- AUC/MIC (free), 1-log reduction ± SEM [8]: 132 ± 16
- AUC/MIC (free), EC50 ± SEM [8]: 73 ± 38
- AUC/MIC (free), Stasis ± SEM [8]: 80 ± 5
